Laboratory results taken from patent publication US20230257700A1, “FUNCTIONAL HUMAN CORNEAL ENDOTHELIAL CELLS AND APPLICATION THEREOF” (KYOTO PREFECTURAL PUBLIC UNIVERSITY CORPORATION, priority 2020, published 2023).

How the values were obtained:
[1] = test system: PDGF-bb; assay: ELISA PDGF-bb in culture supernatant; assay type: cell-based, human; settings: for PDGF-bb in culture supernatant (weekly): #190719 P1 and P2, #190318
Excerpt: (§1) Lot CT09 P5 was used to assay the effects of additives to evaluate the product in a SB2-new culture method. First, using CT09 P4 (remaining cells for FBS lot assay), the culture supernatant was collected the day before the passage (Day 42), and then the CT09 P5 was passaged with ECD400 (181219), followed by culturing in Nancy medium (FBS #1652794, containing ascorbic acid) under conditions 1 to 5 shown in FIG. 23 (2 wells for each 6-well plate). From the 1st week to the 5th week, the culture supernatant was collected, one well was subjected to FACS measurement on Day 34 (190122), and the culture supernatant was measured for IL-8 and PDGF-bb by ELISA.
(§2) As to culture conditions, the Y addition timing is examined at P1 and P2 in #190719, and the Y addition timing is examined at P1 in #190802.
(§3) Using P4 of #190719, the culture supernatant was collected at 1 to 5 w to examine the difference in accordance with the presence or absence of the ROCK inhibitor. Donor information was as follows: #190719S/D, AEB-301, OSCN/ODCN, ECD=3448/3289, COD: Bleomycin Lung Toxicity 2/2 ChemoTreatments, D-P=11:28, D-C=8D.

[2] = test system: human corneal endothelial cells (donor AEM-510); assay: adhesion enhancement at P0 with or without Y addition; assay type: cell-based
Experimental: Next, ROCK inhibitors were tested for adhesion enhancement. In order to investigate whether the enhancement of adhesion by the ROCK inhibitor is related to standard cell manufacture, cells cultured under the following conditions were compared and verified at P0 with or without Y addition.
AEM-510 (person), ECD ODCN: 3058, and OSCN: 3058 were used, which were stored at 4° C. on January 30th, corneal treatment was performed on January 31st at 10:00, OD collagenase treatment was started at 10:45, and OS collagenase treatment was started at 11:05. Thereafter, seeding was started at 14:45 and cultured with Y−, A (ascorbic acid)+for OD and Y+, A+ for OS. At 10:00 on February 4, the medium was replaced, and both eyes: Y+, A+ were photographed (phase contrast ×4, ×10).

[3] = test system: cultured human corneal endothelial cells; assay: FACS cell surface CD antigens and phase-contrast morphology of cultured HCEC (standard cell ratio); assay type: cell-based
Experimental: Culture with 0+Y, SB2, EGF, Asc (ascorbic acid) ↓ P1 Culture with +Y, SB2, EGF, Asc ↓ P2 Culture in 4 ways with EGF(−), 0.5 ng/mL, 1 ng/mL, 5 ng/mL (+Y, SB2, Asc) ↓ Passage from each condition in P2 P3 Culture in 4 ways with EGF(−), 0.5 ng/mL, 1 ng/mL, 5 ng/mL (+Y, SB2, Asc) ↓ Passage from each condition in P3 P4 Culture in 4 ways with EGF(−), 0.5 ng/mL, 1 ng/mL, 5 ng/mL (+Y, SB2, Asc) *Trypsin (TrypLE, ThermoFisher) concentration ×10 at the time of detachment, seeding cell number ECD800 (In the above, P indicates the number of passages.)
P0 Culture two eyes collectively in 2 ways with EGF(−), 0.5 ng/mL (+Y, SB2, Asc) ↓ Passage from each condition in P0 P1 Culture in two ways with EGF(−), 0.5 ng/mL (+Y, SB2, Asc) ↓ Passage from each condition in P1 P2 Culture in two ways with EGF(−), 0.5 ng/mL (+Y, SB2, Asc) TrypLE concentration ×10 at the time of detachment, at seeding ECD800
as §2, §3
For FACS analysis, 16×10^4 cells (one type of antibody+negative control) were dispensed into Proteosave tubes and the rest were passaged. FACS required 8×10^4 cells per antibody type. Passages were seeded at an Endothelial Cell Density (ECD: cells/mm^2) of 400 (191001 time point) (24-well: 7.6×10^4 cells, 12-well: 15.2×10^4 cells, 6-well: 38×10^4 cells, T-25: 100×10^4 cells).
The FACS was started up, and an antibody solution (hereinafter light-shielded, on ice) was prepared as follows. antigen fluorescent dye Volume (μL)×sample type plus something extra (μL)
The cell suspension was centrifuged at 250×g (1,800 rpm) for 2 minutes at 4° C., the supernatant was removed using P-200, the concentration was adjusted to 4×10^6 cells/mL and suspended in FACS Buffer (+NaN3). When the suspension was less than 30 μL, it was suspended in 30 μL and 20 μL was used for the reaction and 10 μL for NC.
Twenty μL of the antibody solution and 20 μL of the suspension were mixed well by pipetting, and the tube was wrapped in aluminum to shield from light and rotated at 4° C. for 2 hours (up to 4 hours maximum) on a rotator. Centrifugation was performed at 250×g (1,800 rpm) for 2 minutes at 4° C., the supernatant was discarded, followed by washing with 100 μL of FACS Buffer (+NaN3). Centrifugation was performed at 250×g (1,800 rpm) for 2 minutes at 4° C., the supernatant was discarded, followed by suspending in 350 μL of FACS buffer (−NaN3), and transferring through a cell strainer to a 5-mL tube. NCs were suspended in FACS Buffer (−NaN3) to a total of 350 μL of the rest of the initial suspension, and transferred to a 5-mL tube through a cell strainer. During the FACS measurement, the sample was kept light-shielded and on ice, the FACS laser value and target cell range were determined, and a file was created (to follow: Open Book→Open Syringe→Green→Cytometer tab: Laser→Area scaling for HCEC label: FSC 0.5/Blue 0.75/Red 0.80). The NC was set to SIT and allowed to run briefly (Flow rate: set to medium, Acquire data 5 seconds→Remove sample from SIT and put on ice) to check the fluorescence parameter graph and target cell range. […]

[4] = test system: miR34a-5p; assay: intracellular miR34a-5p expression by qRT-PCR; assay type: cell-based, human; settings: with/without EGF, with/without Y27632
Excerpt: (§4) Y27632 was used as a ROCK inhibitor.
(§5) Culture conditions conform to Examples 1 and 2.
(§6) The results of miR184, miR34, miR378, and miR146 gene expression variations in the presence or absence of EGF and in the presence or absence of Y by qRT-PCR are shown in FIGS. 17 and 18.

[5] = test system: miR184; assay: intracellular miR184 expression by qRT-PCR; assay type: cell-based, human; settings: with/without EGF, with/without Y27632
Excerpt: as §4, §5, §6

[6] = test system: IL-8; assay: ELISA IL-8 in culture supernatant; assay type: cell-based, human
Excerpt: as §1, §2, §3

[7] = test system: cultured human corneal endothelial cells CT09; assay: effects of additives, lot CT09 P5 (photographs, FACS, ELISA); assay type: cell-based; settings: CT09 P5, conditions 1 to 5, Day 34 FACS, PDGF-bb and IL-8 1st to 5th week
Excerpt: as §1

[8] = test system: IL-6, IL-8 and MIP-1b; assay: cytokine measurement (BioPlex) in culture supernatant; assay type: cell-based, human; settings: #190318
[9] = test system: mitochondrial respiration (OXPHOS) of HCEC; assay: mitochondrial respiratory capacity of cHCEC; assay type: cell-based, human; settings: HCEC passages 2-5
Excerpt: As used herein, “mitochondria dependent oxidative phosphorylation” is also called “mitochondria OXPHOS” and refers to a reaction of oxidative phosphorylation that depends on respiratory activity. As to the reaction associated with “mitochondria OXPHOS”, a extracellular flux analyzer, which analyzes the state of intracellular metabolism, can measure the oxygen consumption rate (OCR), which is an index of OXPHOS activity, the extracellular acidification rate (ECAR), which is an index of glycolytic activity.
Corneal endothelial cells (HCEC) were obtained from donor corneas provided by SightLife (Seattle, Wash., USA), and the HCEC were cultured according to a published protocol (Toda M, Ueno M, et al. Invest Ophthalmol Vis Sci. 2017; 58:2011) with some modifications. HCEC of passages 2-5 were used for all experiments. SPs containing CST were passaged at low cell density. The SPs of cHCEC were identified by cell surface markers (CD24, 44, 105, 166) using phase-contrast microscopy images and flow cytometry.

[10] = test system: cultured endothelial cells; assay: measurement of metabolites in culture supernatant (CE-TOFMS, CE-MS/MS); assay type: cell-based, human
Experimental: In this Example, differences between the metabolite properties of functional human corneal endothelial cells and the metabolite properties of non-intended cells were confirmed.
For measurement of metabolites in culture supernatant (CS), an 80 μL Milli-Q (Merck1 KGaA, Darmstadt, Germany) containing 20 μL of CS and internal standard solution 1 (H3304-1002; Human Metabolome Technologies, Inc., Yamagata, Japan), was thoroughly mixed. Cationic compounds were measured by CE time-of-flight mass spectrometry (CE-TOFMS) in positive mode, and anionic compounds were measured by CE tandem MS (CE-MS/MS) in positive and negative modes. Hierarchical cluster analysis (HCA) was performed using the proprietary software “PeakStat”. Differences in values were analyzed statistically using Student's t-test or one-way analysis of variance (ANOVA) with Bonferroni's post hoc test (GraphPadPrism 6.0, GraphPad software). A p-value of <0.05 was considered statistically significant.
The effect of adding a ROCK inhibitor was determined according to Example 3.

[11] = #190719 P1 and P2, ROCK inhibitor added 10 days after the start of culture
[12] = #190719 P4, ROCK inhibitor added at the start of the culture for 3 days

For `C[C@@H](N)[C@H]1CC[C@H](C(=O)Nc2ccncc2)CC1.Cl.Cl.O` (relative stereo) [Y27632, (R)-(+)-trans-(4-pyridyl)-4-(1-aminoethyl)-cyclohexanecarboxamide dehydrochloride monohydrate], which “PDGF-bb in culture supernatant (weekly)” value [1] is on record?
Its value is “high PDGF levels and slightly low levels in the P1 growth phase”.

And the “PDGF-bb in culture supernatant (for each item)” value [1, 11]?
The value was “increased from differentiation to maturation”.

And the “PDGF-bb in culture supernatant” value [1, 12]?
Its value is “at a low level and does not satisfy the standard values”.

What about the “PDGF-bb in culture supernatant” value ([1]; #190802) of the same compound?
Its value is “increased dependently on differentiation and induction by a ROCK inhibitor”.

And the “adhesion to the incubator after seeding” value ([2]; P0, Y+ vs Y−)?
Its value is “promoted the adhesion to the incubator after seeding the cells”.

What about the “difference between cultures on the 14th day” value ([2]; Y27632 added for the first time after the 4th day vs from seeding) of the same compound?
Its value is “no difference was observed on the 14th day of culture”.

What about the “mature standard cells by FACS” value [3, 12] of the same compound?
Its value is “no mature standard cells were detected by FACS”.

What about the “ratio of standard cells (FACS)” value ([3]; ROCK inhibitor added on the 10th day after the start of culture, #190719, #190802, #190318) of the same compound?
Its value is “higher ratio of standard cells in all of the three experiments”.

What about the miR34a-5p expression level [4] of the same compound?
The miR34a-5p expression level was “increases with the addition of the ROCK inhibitor”.

And the miR184 expression level [5]?
Its miR184 expression level is “increases with the addition of the ROCK inhibitor”.

And the “IL-8 in culture supernatant” value [6, 11]?
The value was “lowest from differentiation to the maturation stage”.

And the “IL-8 in culture supernatant” value [6, 12]?
The value was “higher than the standard”.

What about the “desirable additive condition (overall effects of the additives)” value (from here on “desirable additive condition”) [7] of the same compound?
Its value is “addition of Y from Day 10”.

With `C[S+]([O-])c1ccc(-c2nc(-c3ccncc3)c(-c3ccc(F)cc3)[nH]2)cc1` (stereo not drawn) [SB203580] as the compound, how does the “PDGF-bb in culture supernatant (for each item)” value ([1]; #190318, SB2 not added) read?
The value was “high PDGF levels at 3 w”.

And the “PDGF-bb in culture supernatant (weekly)” value [1]?
The value was “little relation to the presence or absence of SB203580”.

What about the “IL-6, IL-8 and MIP-1b in culture supernatant (BioPlex)” value [8] of the same compound?
Its value is “dependent on the p38 MAPK inhibitor”.

What about the “IL-8 in culture supernatant (weekly)” value ([6]; #190318) of the same compound?
Its value is “varies almost depending on the presence or absence of SB2”.

And the “IL-8 in culture supernatant” value ([6]; #190802)?
The value was “decreased dependently on a p38 MAPK inhibitor”.

And the “desirable additive condition” value [7]?
Its value is “no addition of SB2 or the addition thereof only at the final stage of culture”.

With `NC(=O)c1ccc(-c2nc(-c3ccc4c(c3)OCO4)c(-c3ccccn3)[nH]2)cc1` [SB4] as the compound, how does the “desirable additive condition” value [7] read?
The value was “addition of SB4”.

With “EGF: epidermal growth factor, a type of cell growth factor” as the compound, how does the “ratio of corneal endothelial cells of the present disclosure (FACS)” value ([3]; EGF (−) or 0.5 ng/mL from primary culture, P0 to P2, donor #214) read?
Its value is “increases when EGF is not added”.

And the “cell shape under microscopy and cell surface CD antigen trait” value ([3]; EGF (−), 0.5, 1, 5 ng/mL, passages P2 to P4, donor #202)?
Its value is “no addition of EGF was desirable at any passage from P2 to P4”.

And the standard cell ratio ([3]; EGF addition, HCEC passages 2-5)?
The standard cell ratio was “lowers the standard cell ratio”.

And the miR34a-5p expression level [4]?
Its miR34a-5p expression level is “increases with no EGF addition than with EGF addition”.

What about the “mitochondrial respiratory capacity and oxidative phosphorylation (OXPHOS)” value [9] of the same compound?
Its value is “reduces mitochondrial respiratory capacity and oxidative phosphorylation (OXPHOS)”.

And the “Lactic Acid and L/P (lactic acid/pyruvic acid) ratio; anaerobic glycolytic activity” value [10]?
The value was “non-intended cell profile with high anaerobic glycolytic activity due to the addition of EGF”.

What about the “metabolite profile of cultured endothelial cells” value ([10]; EGF added) of the same compound?
The value was “showed a non-intended cell profile by adding EGF”.

What about the “amount of branched chain amino acids (Ile, Leu) produced” value ([10]; amount of EGF added varied) of the same compound?
The value was “decreased when the amount of EGF added was reduced”.

And the miR184 expression level [5]?
The miR184 expression level was “increases with no EGF addition than with EGF addition”.

And the “desirable additive condition” value [7]?
Its value is “no addition of EGF”.
